# Laboratory results taken from a melting point compilation (Tetko et al.; mined from patent text by program, amines drawn as free bases though some values may be those of a salt).
row,melting point [°C],Structure (SMILES)
1,208 to 210,COc1ccc(-c2ccccn2)c(S(=O)c2nc3cc(OC)c(OC)cc3[nH]2)c1 (stereo not drawn)
2,55 to 56,O=[N+]([O-])c1cc(Cl)ccc1-n1cccc1
3,95 to 105,COc1cccc(NC(=O)NC2CC(c3ccccc3)CC(Cc3ccccc3)N(CC(=O)OC(C)(C)C)C2=O)c1 (stereo not drawn)
4,130 to 132,COC(=O)CCc1cc2cc(C(F)(F)F)ccc2n1S(=O)(=O)c1ccc2ncsc2c1
5,178 to 179,CSC1=NC(C)(C)CN1C(=O)Nc1c(C)cccc1C
6,104,CC(C)N(Sc1ccc([N+](=O)[O-])cc1C(Cl)(Cl)Cl)C(C)C
7,58 to 60,CCOC(=O)c1cccc(O)c1C
8,272 to 274,COc1cc(OC)c2c(=O)c3oc4cc(OC)ccc4c3oc2c1
9,231 to 233,CC1(C)C(=O)Nc2ccc(-c3cc(F)cc([N+](=O)[O-])c3)cc21
10,108 to 109,CS(=O)(=O)OCCNc1ccc(Cl)cc1[N+](=O)[O-]
11,173,NC(C=Cc1ccccc1[N+](=O)[O-])=NO
12,91.5 to 92.5,CCSc1nc(C#N)c(C#N)nc1C
13,193,Cn1c(=O)c([N+](=O)[O-])c(O)c2ccccc21
14,163 to 164,CCn1ncc2c(NCCc3ccccc3)c3ccc(OC)cc3nc21
15,177 to 179,COc1ccc(C2=NN(Cc3ccc(O)cc3)C(=O)[C@H]3CCCC[C@@H]23)cc1OC (relative stereo)
16,157,CC(C)(C)NS(=O)(=O)c1ccc(Cl)c(CBr)c1Cl
17,117 to 119,OCC1(CO)COC2(CCCCC2)N1
18,97 to 103,CCCCOC(=O)c1cccc(CCN(C)CCCC(C#N)(c2ccc(OC)c(OC)c2)C(C)C)c1 (stereo not drawn)
19,138 to 141,CC(C)(C)OC(=O)N1CCc2cc([N+](=O)[O-])ccc2C1
20,55 to 56,CCCCCCc1ccc2c3ccc(C=O)cc3n(C)c2c1
21,102 to 106,COCCOc1ccc(/C=C/C(=O)NS(=O)(=O)c2ccc(C)cc2)c(Oc2ncc(C(F)(F)F)cc2Cl)c1
22,71 to 73,CC(C)c1ccc(NCc2ccc(N(C)C)cc2)cc1
23,305,Cn1cc(O)c(=O)c2ccc(C#N)cc21
24,242 to 245,N#Cc1cnc2c(oc3ccccc32)c1Nc1cccc(Br)c1
25,163 to 164,CC(C)(C)c1cc(OCC(N)=S)cc(C(C)(C)C)c1O

row,melting point [°C],Structure (SMILES)
1,243 to 245,Cc1cc(C=Cc2ccc(-c3ccc(C(F)(F)F)cc3)cc2)ccc1OCC(=O)O
2,> 350,O=c1cc(O)c(=O)c2ccc(O)cc2[nH]1
3,249 to 251,COC(=O)c1ccc2c(c1)C(=O)c1c-2n(CCCNS(=O)(=O)c2ccccc2)c(=O)c2cc(OC)c(OC)cc12
4,103,CN(C)c1ccc(C(=O)OC2CCN(Cc3ccccc3)CC2)cc1
5,216 to 217,O=S(=O)(Nc1nnc(Cl)cc1OCc1cccnc1)c1cccc(Cl)c1Cl
6,168 to 169,CN1CCN(c2cnn(C)c(=O)c2C=NO)CC1
7,106 to 107,COc1cc(C)c(Cl)cc1C(=O)Cl
8,225 to 226,Clc1cnn2c(-c3cccnc3)ccnc12
9,59 to 60,O=C(OCc1ccccc1)[C@H](O)CCc1ccccc1
10,126,COc1ccc(-c2cncc(OC3SCC(OC(C)=O)C(OC(C)=O)C3OC(C)=O)c2)c(Cl)c1 (stereo not drawn)
11,86 to 87,CCOC(=O)CCc1c(OCc2ccc(OCc3nc(-c4ccccc4)oc3C)cc2)ccc2ccccc12
12,199,O=C1C(=O)N2CCCc3cccc1c32
13,232 to 235,O=C(O)c1ccc2c(CCNCc3cccc(OCC(F)(F)F)c3)c[nH]c2c1
14,214 to 216,O=C1CNc2cc(Br)c(F)cc2N1
15,207 to 209,O=C(O)c1cc2ncnn2nc1NCCCN1CCC(OC(c2ccccc2)c2ccccc2)CC1
16,127 to 129,C=C(C#N)CN1CCC(C(N)=O)CC1
17,245 to 248,O=Cc1ccc(OC(F)F)c2oc3ccc([N+](=O)[O-])cc3c12
18,182,O=C(OC(c1ccccc1)c1ccccc1)C(=O)N1C(=O)[C@@H]2N=C(c3ccccc3)O[C@@H]21
19,220 to 222,O=C(NC1CCC(O)CC1)C1CC1 (stereo not drawn)
20,80 to 81,COc1ccc(CC(=O)c2ccccc2)cc1OC
21,160 to 161,COc1ccc(C2=C(c3ccc(OC4CCCCO4)cc3)CCCc3cc(OC4CCCCO4)ccc32)cc1 (stereo not drawn)
22,65 to 68,CC(C)N(Cc1ccccc1)C(=O)C(=O)N1CCN(c2ccccc2C(C)(C)C)CC1
23,248 to 254,CCOCC1COc2cc3c(O)c(C#N)cnc3cc2O1 (stereo not drawn)
24,62 to 64,CCOC(=O)c1ccc(N(C)C)cc1C(=O)OCC
25,293 to 295,Cc1c(C)c2c(c(C)c1NC(=O)c1ccc(Cl)cc1)C(c1ccc(C(C)C)cc1)C1(CCN(C)CC1)O2 (stereo not drawn)

row,melting point [°C],Structure (SMILES)
1,175 to 180,O=C(NCC12CC3CC(CC(C3)C1)C2)c1c(Cl)ccc2nc(N3C[C@@H]4C(C(=O)O)[C@@H]4C3)ccc12 (stereo partly drawn)
2,250 to 252,O=C(Cc1ccc2c(c1)CCC(NS(=O)(=O)c1cccs1)C2)Nc1ccc(C(=O)O)cc1 (stereo not drawn)
3,132 to 133,COCc1cc2c(s1)CCc1cc(=O)n(-c3ccc(C)cc3)nc1-2
4,172 to 174,Cc1cc(Oc2ncc(C(F)(F)F)cc2Cl)nn1C(=O)Nc1cccc([N+](=O)[O-])c1
5,74 to 76,Cc1ccc(CC(C)(C)C(=O)C=CN(C)C)cc1
6,228,CCN1CCCC1CNC(=O)c1ccc(O)c(Cl)c1 (stereo not drawn)
7,102,COC(=O)CCCc1cc2nc(Cl)ccc2n1S(=O)(=O)c1ccc(Br)cc1
8,136 to 139,COc1cc(OC)nc(C(=O)NS(=O)(=O)Oc2c(Cl)cccc2Cl)n1
9,80 to 83,CC(=O)c1cc2c(cc1OCCCCCBr)OC(C(=O)OC(C)C(C)O)CC2 (stereo not drawn)
10,58 to 60,CCCCCCCN(CCCCCSc1nc(-c2ccccc2)c(-c2ccccc2)[nH]1)c1nc2ccccc2o1
11,151,CC[C@@H](CNc1ccc(C)cc1C)NS(=O)(=O)c1c(N)cc(Cl)cc1Cl
12,151 to 153,CC1CN(c2ccccn2)CCN1Cc1nc2ccccc2[nH]1 (stereo not drawn)
13,107 to 109,CCOC(Cc1ccc(OCCN2CCOc3ccccc32)cc1)C(N)=O (stereo not drawn)
14,165 to 166,c1ccc(-c2nc3ccc(N4CCC(N5CCCC5)CC4)nn3c2-c2ccncc2)cc1
15,130,NC(=O)/C=C/c1ccc(F)cc1
16,101 to 102,OCc1ccc2ccccc2c1Br
17,136 to 138,COc1cc2c3c(Br)cc(OC)c(OC)c3n(C(=O)c3ccc(C(C)(C)C)cc3)c2cc1OC
18,143 to 144,CSc1c(Cl)nc(Cl)nc1SC#N
19,109,Cc1ncc(Cn2c(CC3CCN(Cc4ccccc4)CC3)nc3ccccc32)o1
20,278,Nc1noc(-c2nc(Cl)c(N)nc2N)n1
21,154 to 156,COc1cc(OC)cc(C2CCCCC2=CC(=O)O)c1 (stereo not drawn)
22,195,OCCOc1ccc(-c2nc(-c3ccccc3)nc(-c3ccccc3)n2)c(O)c1
23,239 to 245,O=C1NC(c2ccc(Cl)cc2)c2ccccc2C1CCN1CCOCC1 (stereo not drawn)
24,153 to 154,COc1ccc(C(=O)Cl)cc1C12CC3CC(CC(C3)C1)C2
25,135 to 136,Cc1ccc(S(=O)(=O)N2CCC[C@H]2C(=O)N2c3ccc(F)c(Cl)c3C(=O)CC2C)cc1 (stereo partly drawn)

row,melting point [°C],Structure (SMILES)
1,139 to 142,COc1cccc(NC(=O)NC2N=C(C(C)C)c3ccccc3N(CC(=O)N3CC4CCC(CC4)C3)C2=O)c1 (stereo not drawn)
2,202 to 204,C=CCOc1ccccc1-c1ncc(C(N)=O)c(=O)[nH]1
3,203 to 206,c1ccc2nc(COc3ccc(CCc4ccc(-c5nnn[nH]5)cc4)cc3)ccc2c1
4,86 to 88,COc1cccc(C(F)(F)F)c1S(=O)(=O)Cl
5,280 to 284,O=C(Nc1ccc(F)cc1)c1nnc2ccccc2c1O
6,121 to 123,O=C(N[C@H](CC1CCCCC1)CN1CCN(c2ncccn2)CC1)C1CCCCC1
7,54,FC1(F)CCN(c2cccc3c2OCCNC3)C1
8,210 to 212,O=[N+]([O-])c1cccc(Oc2cccc(-c3nnc(Nc4ccc(Cl)c(Cl)c4)s3)c2)c1
9,63 to 64,Cc1cc(C2CC(C)(C)CC(C)(C)C2=O)ccc1F (stereo not drawn)
10,179 to 183,C=CCC1(CC=C)c2cc(N(c3ccccc3)c3ccccc3)ccc2-c2ccc(N(c3ccccc3)c3ccccc3)cc21
11,113 to 115,CCCC(=O)OC1=C(c2ccc(OC)cc2)S(=O)c2ccccc2-n2cccc21 (stereo not drawn)
12,149 to 153,CN1C(=O)CCC1(O)c1ccc(Cl)c(S(=O)(=O)NCCc2ccccc2)c1 (stereo not drawn)
13,92.5 to 95,COC(=O)CC(c1ccc(OC)c(OC)c1)N1C(=O)C2CCCCC2C1=O (stereo not drawn)
14,120 to 121,COCCNC(=O)c1ccc(C(=O)N2CCN(c3ncccc3NC(C)C)CC2)cc1
15,53,C#CCOCCOC(=O)COc1ccc(Cl)c2cccnc12
16,98,Cc1ccc(NC(=O)Oc2ccc3c(c2)N(Cc2ccccc2)CCC3)cc1
17,144 to 145,CCn1c(C)nc2cc(C(F)(F)F)cc(N)c21
18,124 to 127,CC(=O)NC1(c2ccc(CCl)cc2)CC1
19,185 to 190,Cc1c(C)c(C)c(C2C(=O)Oc3c2cc(C(C)(C)C)cc3C(C)(C)C)c(C)c1C (stereo not drawn)
20,130 to 132,COC=NS(=O)(=O)c1cc(C(C)C)c(C#N)cc1C(C)C
21,90 to 97,COCCOCOc1c(C(C)(C)C)nc(C=NO)nc1C(C)(C)C
22,64 to 66,CCOC(=O)COc1ccc(CCl)cc1OC
23,100 to 103,CCCCCCCCCCCCN=C=O
24,129 to 130,COc1ccc(S(=O)(=O)N2CSCC2=O)cc1

row,Structure (SMILES),melting point [°C]
1,COc1cc2c(c(OC(=O)Cc3ccccc3)c1OC)=NC(=O)C(=O)N=2,298 to 300
2,NCC(O)c1ccc([N+](=O)[O-])cc1 (stereo not drawn),138 to 139
3,O=C(Cl)C(=O)c1cn(Cc2ccc(Cl)cc2)c2ccccc12,151 to 153
4,O=[N+]([O-])C1=C2N(Cc3ccc(Cl)nc3)CCN2C2CCC1O2 (stereo not drawn),149 to 150
